Test results reported in patent US10273333B2, “Substituted polyesters by thiol-ene modification: rapid diversification for therapeutic protein stabilization” (THE REGENTS OF THE UNIVERSITY OF CALIFORNIA, priority 2014, dated 2019).

Key:
[1] = biological target: T1, granulocyte colony-stimulating factor (G-CSF) (Homo sapiens, UniProt P09919); test: G-CSF stabilization studies; G-CSF bioactivity by NFS-60 cell proliferation (CellTiter-Blue); format: cell-based; conditions: 60° C. for 30 minutes; small molecules at the concentration of stabilizing units in pCL-zwitterion80, Tween 80 and polymers at 100 weight equivalents; FIG. 74
T1 construct: host or cells: E. coli
T1 sequence (P09919 31-204 isoform P09919-2 limits assumed): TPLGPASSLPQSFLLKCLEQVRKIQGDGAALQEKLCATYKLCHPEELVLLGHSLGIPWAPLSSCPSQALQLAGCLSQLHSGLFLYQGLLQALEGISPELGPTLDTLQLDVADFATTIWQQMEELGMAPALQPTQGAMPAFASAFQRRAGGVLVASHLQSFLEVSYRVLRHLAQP
Procedure: G-CSF Stabilization Studies: G-CSF samples (25 μL) were prepared in 10 mM acetate buffer, pH 4.0 at 1 μg/mL with 100 equivalents polymer additive by weight. Samples were stored at 4° C. for 90 minutes or 60° C. for 30 minutes and then were diluted with cold RPMI-1640 medium+10% FBS (735 μL). The samples were then further diluted with RPMI-1640+10% FBS to a final concentration of 1 ng/mL. G-CSF bioactivity was then assayed in a NFS-60 mouse myelogenous leukemia lymphoblast cell line. NFS-60 cells were cultured in RPMI-1640 medium supplemented with 10% FBS and 2 ng/mL interleukin-3 (IL-3) at 37° C./5% CO2. NFS-60 cells were passaged at least three times before used in proliferation experiments. Prior to treating NFS-60 cells with G-CSF samples, NFS-60 cells were collected and resuspended in RPMI-1640 with 10% FBS (without additional growth factors). Cells were plated in the internal wells of a 96 well plate at a density of 20,000 cells per well in 50 μL of medium. G-CSF solution (50 μL) was then added to provide a final concentration of 0.5 ng/mL and total well volume of 100 μL. Following 48 h incubation at 37° C./5% CO2, CellTiter-Blue viability assay was performed to measure cell proliferation. All experimental groups were normalized to the control of the control of media alone without G-CSF addition. All p values were calculated using the independent Student's t test assuming unequal variances.
Next the ability of the polymer to protect protein activity against environmental stressors was assessed. The therapeutic protein granulocyte colony-stimulating factor (G-CSF) was selected to compare excipient efficacy due to its clinical importance. […] G-CSF is highly unstable at physiological pH and is therefore stored at pH 4.0; still at this pH the protein readily degrades upon storage or subjection to heat (Krishnan et al., 2002). […] Protein activity was determined by measuring cell proliferation in murine myeloid leukemia NFS-60 cells, which is enhanced in the presence of GCSF, and compared to the proliferation of freshly diluted protein (Shirafuji et al., 1989).

[2] = Differential scanning calorimetry (DSC): melting and crystallization enthalpy of water; format: physicochemical; conditions: 1 mol % of the stabilizing unit; for ΔHc (change in crystallization enthalpy of water) / ΔHm (change in melting enthalpy of water): relative to water; for Hc (crystallization enthalpy of water) / Hm (melting enthalpy of water): second heat/cool run, in J/g (unit assumed)
Procedure: Solutions of trehalose, betaine, pCL-trehalose80, and pCL-zwitterion80 were made at 1 mol % of the stabilizing unit (trehalose or betaine) and analyzed by DSC (TA Instruments Q2000). Runs were carried out using two heat/cool cycles from −40° C. to 40° C. at […] and values were taken from the second run.

[3] = biological target: lysozyme (Gallus gallus, UniProt P00698); test: Lysozyme stabilization against heat stress (90° C., 20 minutes), EnzChek lysozyme activity assay; format: biochemical; conditions: heated 90° C. for 20 minutes; 5 to 25 wt eq. excipient; FIG. 12a
Sequence of lysozyme (P00698 19-147): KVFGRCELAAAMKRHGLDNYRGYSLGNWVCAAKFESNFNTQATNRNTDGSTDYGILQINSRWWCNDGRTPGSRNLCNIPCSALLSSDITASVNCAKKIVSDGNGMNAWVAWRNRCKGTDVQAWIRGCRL
Procedure: The ability of these biodegradable trehalose polymers to stabilize proteins was confirmed through heat and lyophilization stress assays. […] Therefore, these proteins were also selected to test the biodegradable trehalose polymers. First, lysozyme was stressed by heating to 90° C. for 20 minutes.
[…] Samples were further diluted to a concentration of 0.021 mg/mL (1 kU/mL) and […] aliquots were prepared in 0.5 mL LoBind Eppendorf tubes. Each aliquot was heated to 90° C. for 20 minutes at 500 rpm, then cooled to 4° C. and centrifuged for 1 minute at 10,000 rpm. Samples were stored at 4° C. until activity was evaluated all together using the EnzChek® lysozyme activity assay.
Aliquots containing 20 μL of lysozyme-glycopolymer solution were diluted to 100 μL with PBS pH 7.4. 50 μL of the resulting solution was removed and incubated with 50 μL of Micrococcus luteus labeled with FITC (1 mg/mL) at 37° C. for 30 minutes in a 96-well plate. The resulting fluorescence was measured (abs 480 nm/em 530 nm) and quantified relative to a known concentration curve. Statistics to determine significance were calculated using the Students t test; % confidence as +/−=t(standard deviation)/(number of trials)½ with p<1−% confidence/100.

[4] = system: β-galactosidase (β-Gal); conditions: three 12-hour desiccation (lyophilization) cycles; excipient; FIG. 12b
Procedure: The stabilization of β-Gal against lyophilization stress was also measured. […] The activity of β-Gal was determined by reaction with ortho-nitrophenol galactose (ONPG). When incubated with β-Gal, release of the yellow-colored o-nitrophenol from ONPG can be monitored at 405 nm.
The activity of β-Gal was determined by reaction with ortho-nitrophenol galactose (ONPG). When incubated with β-Gal, release of the yellow-colored o-nitrophenol from ONPG can be monitored at 405 nm.
Lyophilization studies with β-galactosidase were carried out as previously described; 8-Gal was subjected to three 12 hour lyophliization cycles before dilution. Activity was assayed by monitoring the hydrolysis of o-nitrophenol galactose (ONPG) at 405 nm.

Row | Compound | G-CSF activity / cell proliferation, comparison with small-molecule excipients [1] | ΔHc (change in crystallization enthalpy of water) [2] | ΔHm (change in melting enthalpy of water) [2] | Hc (crystallization enthalpy of water) [2] | Hm (melting enthalpy of water) [2] | lysozyme activity retained (of native activity) [3] | β-Gal activity maintained (of native activity) [4]
1 | OC[C@H]1O[C@@](CO)(O[C@H]2O[C@H](CO)[C@@H](O)[C@H](O)[C@H]2O)[C@@H](O)[C@@H]1O [sucrose] | little stabilizing effect |  |  |  |  |  | 
2 | CCCCCCCC/C=C\CCCCCCCC(=O)OCCOCC(OCCO)C1OCC(OCCO)C1OCCO (stereo not shown) [Tween 80, polysorbate 80] | maintained high protein activity |  |  |  |  |  | 
3 | C[N+](C)(C)CC(=O)O [betaine] | little stabilizing effect | 73.2 | −98.4 | −179 | 198.1 |  | 
4 | OC[C@H]1O[C@H](O[C@H]2O[C@H](CO)[C@@H](O)[C@H](O)[C@H]2O)[C@H](O)[C@@H](O)[C@@H]1O [trehalose] |  | 22.3 | −47.4 | −229.9 | 249.1 | not significantly different from the negative control | up to 67%
